Tests used:
[1] = tested on: oval-leafed pondweed; experiment: Test Example 1: herbicidal activity, application before weed generation under submerged conditions (Table 16, symbol C); assay type: in vivo, oval-leafed pondweed (Monochoria vaginalis); conditions: 320 g/ha applied herbicide
Summary of the method: (§1)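 Submerged Wagner pots (alluvial soil, 4 cm water) sown with weed seeds and planted with 2.5-leaf rice seedlings; emulsifiable concentrate diluted in water applied to water surface on sowing day. Held in greenhouse at 25-30 °C; injury scored 0-5 by herbicidal rate after three weeks.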

[2] = tested on: persian speedwell; experiment: Test Example 4: herbicidal effect by soil treatment (Table 19, symbol R); assay type: in vivo, Persian speedwell (Veronica persica); conditions: 320 g/ha
Summary of the method: (§2)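 Soil-surface application: an emulsion agent diluted with water to the predetermined dose is sprayed uniformly over seeds lying under roughly 1.5 cm of sterilized diluvial soil. Boxes stay in a greenhouse at 25° C. to 30° C. Three weeks later, each species is graded on previously defined criteria.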

[3] = tested on: late watergrass; experiment: Test Example 1: herbicidal activity, application before weed generation under submerged conditions (Table 16, symbol A); assay type: in vivo, late watergrass (Echinochloa oryzicola); conditions: 320 g/ha applied herbicide
Summary of the method: as §1

[4] = tested on: rice flat sedge; experiment: Test Example 3: herbicidal effect by foliage application, Wagner pot (Table 18, symbol E); assay type: in vivo, rice flat sedge (Cyperus iria); conditions: 320 g/ha
Summary of the method: (§3)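 Plants were sown in alluvial soil held under 0.1–0.5 cm standing water and grown 14 days in a greenhouse at 25–30 °C. An emulsifiable formulation, water-diluted to the set dose, was then sprayed onto the foliage, and effects were scored three weeks later using previously defined criteria.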

[5] = tested on: Japanese bulrush; experiment: Test Example 1: herbicidal activity, application before weed generation under submerged conditions (Table 16, symbol B); assay type: in vivo, Japanese bulrush (Schoenoplectus juncoides); conditions: 320 g/ha applied herbicide
Summary of the method: as §1

[6] = tested on: barnyard grass; experiment: Test Example 3: herbicidal effect by foliage application, Wagner pot (Table 18, symbol H); assay type: in vivo, barnyard grass (Echinochloa crus-galli); conditions: 320 g/ha
Summary of the method: as §3

[7] = tested on: redroot pigweed; experiment: Test Example 5: herbicidal effect by foliage application, plastic box (Table 20, symbol N); assay type: in vivo, redroot pigweed (Amaranthus retroflexus); conditions: foliage application, 320 g/ha, evaluated three weeks after application
Summary of the method: (§4)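 Sow seeds spot-wise in sterilized diluvial soil; cover with ~1.5 cm soil. Grow 14 days in greenhouse, 25° C. to 30° C. Spray foliage with emulsion diluted to predetermined amount. Rate effect after 3 weeks.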

[8] = tested on: chickweed; experiment: Test Example 4: herbicidal effect by soil treatment (Table 19, symbol P); assay type: in vivo, common chickweed (Stellaria media); conditions: 320 g/ha
Summary of the method: as §2

[9] = tested on: wild oat; experiment: Test Example 4: herbicidal effect by soil treatment (Table 19, symbol I); assay type: in vivo, wild oat (Avena fatua); conditions: 320 g/ha
Summary of the method: as §2

[10] = tested on: lambsquarters; experiment: Test Example 4: herbicidal effect by soil treatment (Table 19, symbol O); assay type: in vivo, lambsquarters (Chenopodium album); conditions: 320 g/ha
Summary of the method: as §2

[11] = tested on: barnyard grass; experiment: Test Example 5: herbicidal effect by foliage application, plastic box (Table 20, symbol H); assay type: in vivo, barnyard grass (Echinochloa crus-galli); conditions: foliage application, 320 g/ha, evaluated three weeks after application
Summary of the method: as §4

[12] = tested on: blackgrass; experiment: Test Example 4: herbicidal effect by soil treatment (Table 19, symbol J); assay type: in vivo, blackgrass (Alopecurus myosuroides); conditions: 320 g/ha
Summary of the method: as §2

[13] = tested on: Italian ryegrass; experiment: Test Example 5: herbicidal effect by foliage application, plastic box (Table 20, symbol K); assay type: in vivo, Italian ryegrass (Lolium multiflorum); conditions: foliage application, 320 g/ha, evaluated three weeks after application
Summary of the method: as §4

[14] = tested on: windgrass; experiment: Test Example 5: herbicidal effect by foliage application, plastic box (Table 20, symbol L); assay type: in vivo, windgrass (Apera spica-venti); conditions: foliage application, 320 g/ha, evaluated three weeks after application
Summary of the method: as §4

[15] = tested on: velvetleaf; experiment: Test Example 4: herbicidal effect by soil treatment (Table 19, symbol M); assay type: in vivo, velvetleaf (Abutilon theophrasti); conditions: 320 g/ha
Summary of the method: as §2

[16] = tested on: southern crabgrass; experiment: Test Example 5: herbicidal effect by foliage application, plastic box (Table 20, symbol F); assay type: in vivo, southern crabgrass (Digitaria ciliaris); conditions: foliage application, 320 g/ha, evaluated three weeks after application
Summary of the method: as §4

[17] = tested on: windgrass; experiment: Test Example 4: herbicidal effect by soil treatment (Table 19, symbol L); assay type: in vivo, windgrass (Apera spica-venti); conditions: 320 g/ha
Summary of the method: as §2

[18] = tested on: persian speedwell; experiment: Test Example 5: herbicidal effect by foliage application, plastic box (Table 20, symbol R); assay type: in vivo, Persian speedwell (Veronica persica); conditions: foliage application, 320 g/ha, evaluated three weeks after application
Summary of the method: as §4

[19] = tested on: green foxtail; experiment: Test Example 5: herbicidal effect by foliage application, plastic box (Table 20, symbol G); assay type: in vivo, green foxtail (Setaria viridis); conditions: foliage application, 320 g/ha, evaluated three weeks after application
Summary of the method: as §4

[20] = tested on: blackgrass; experiment: Test Example 5: herbicidal effect by foliage application, plastic box (Table 20, symbol J); assay type: in vivo, blackgrass (Alopecurus myosuroides); conditions: foliage application, 320 g/ha, evaluated three weeks after application
Summary of the method: as §4

[21] = tested on: Chinese sprangletop; experiment: Test Example 3: herbicidal effect by foliage application, Wagner pot (Table 18, symbol D); assay type: in vivo, chinese sprangletop (Leptochloa chinensis); conditions: 320 g/ha
Summary of the method: as §3

[22] = tested on: velvetleaf; experiment: Test Example 5: herbicidal effect by foliage application, plastic box (Table 20, symbol M); assay type: in vivo, velvetleaf (Abutilon theophrasti); conditions: foliage application, 320 g/ha, evaluated three weeks after application
Summary of the method: as §4

[23] = tested on: southern crabgrass; experiment: Test Example 4: herbicidal effect by soil treatment (Table 19, symbol F); assay type: in vivo, southern crabgrass (Digitaria ciliaris); conditions: 320 g/ha
Summary of the method: as §2

[24] = tested on: chickweed; experiment: Test Example 5: herbicidal effect by foliage application, plastic box (Table 20, symbol P); assay type: in vivo, common chickweed (Stellaria media); conditions: foliage application, 320 g/ha, evaluated three weeks after application
Summary of the method: as §4

[25] = tested on: wild oat; experiment: Test Example 5: herbicidal effect by foliage application, plastic box (Table 20, symbol I); assay type: in vivo, wild oat (Avena fatua); conditions: foliage application, 320 g/ha, evaluated three weeks after application
Summary of the method: as §4

[26] = tested on: Italian ryegrass; experiment: Test Example 4: herbicidal effect by soil treatment (Table 19, symbol K); assay type: in vivo, Italian ryegrass (Lolium multiflorum); conditions: 320 g/ha
Summary of the method: as §2

[27] = tested on: lambsquarters; experiment: Test Example 5: herbicidal effect by foliage application, plastic box (Table 20, symbol O); assay type: in vivo, lambsquarters (Chenopodium album); conditions: foliage application, 320 g/ha, evaluated three weeks after application
Summary of the method: as §4

[28] = tested on: redroot pigweed; experiment: Test Example 4: herbicidal effect by soil treatment (Table 19, symbol N); assay type: in vivo, redroot pigweed (Amaranthus retroflexus); conditions: 320 g/ha
Summary of the method: as §2

[29] = tested on: green foxtail; experiment: Test Example 4: herbicidal effect by soil treatment (Table 19, symbol G); assay type: in vivo, green foxtail (Setaria viridis); conditions: 320 g/ha
Summary of the method: as §2

[30] = tested on: barnyard grass; experiment: Test Example 4: herbicidal effect by soil treatment (Table 19, symbol H); assay type: in vivo, barnyard grass (Echinochloa crus-galli); conditions: 320 g/ha
Summary of the method: as §2

Cc1nn(C)c(=O)c(-c2c(-c3ccc(Cl)c(Cl)c3)sc3ccc(F)cc23)c1O [2-081]
Herbicidal effect on C: oval-leafed pondweed (grade 0-5) [1]: 0 (Herbicidal rate of 5% or less (almost no effect)) | herbicidal effect rating, R: persian speedwell [2]: 4 (Herbicidal rate of 70% or more and less than 90%) | Herbicidal effect on A: late watergrass (grade 0-5) [3]: 4 (Herbicidal rate of 70% or more and less than 90%) | herbicidal effect on E (rice flat sedge), rating 0-5 [4]: 5 (Herbicidal rate of 90% or more (almost completely withered)) | Herbicidal effect on B: Japanese bulrush (grade 0-5) [5]: 2 (Herbicidal rate of 20% or more and less than 40%) | herbicidal effect on H (barnyard grass), rating 0-5 [6]: 5 (Herbicidal rate of 90% or more (almost completely withered)) | herbicidal effect on N: redroot pigweed [7]: 5 (Herbicidal rate of 90% or more (almost completely withered)) | herbicidal effect rating, P: chickweed [8]: 3 (Herbicidal rate of 40% or more and less than 70%) | herbicidal effect rating, I: wild oat [9]: 0 (Herbicidal rate of 5% or less (almost no effect)) | herbicidal effect rating, O: lambsquarters [10]: 4 (Herbicidal rate of 70% or more and less than 90%) | herbicidal effect on H: barnyard grass [11]: 5 (Herbicidal rate of 90% or more (almost completely withered)) | herbicidal effect rating, J: blackgrass [12]: 0 (Herbicidal rate of 5% or less (almost no effect)) | herbicidal effect on K: Italian ryegrass [13]: 5 (Herbicidal rate of 90% or more (almost completely withered)) | herbicidal effect on L: windgrass [14]: 5 (Herbicidal rate of 90% or more (almost completely withered)) | herbicidal effect rating, M: velvetleaf [15]: 3 (Herbicidal rate of 40% or more and less than 70%) | herbicidal effect on F: southern crabgrass [16]: 4 (Herbicidal rate of 70% or more and less than 90%) | herbicidal effect rating, L: windgrass [17]: 0 (Herbicidal rate of 5% or less (almost no effect)) | herbicidal effect on R: persian speedwell [18]: 5 (Herbicidal rate of 90% or more (almost completely withered)) | herbicidal effect on G: green foxtail [19]: 5 (Herbicidal rate of 90% or more (almost completely withered)) | herbicidal effect on J: blackgrass [20]: 2 (Herbicidal rate of 20% or more and less than 40%) | herbicidal effect on D (Chinese sprangletop), rating 0-5 [21]: 3 (Herbicidal rate of 40% or more and less than 70%) | herbicidal effect on M: velvetleaf [22]: 5 (Herbicidal rate of 90% or more (almost completely withered)) | herbicidal effect rating, F: southern crabgrass [23]: 0 (Herbicidal rate of 5% or less (almost no effect)) | herbicidal effect on P: chickweed [24]: 5 (Herbicidal rate of 90% or more (almost completely withered)) | herbicidal effect on I: wild oat [25]: 4 (Herbicidal rate of 70% or more and less than 90%) | herbicidal effect rating, K: Italian ryegrass [26]: 4 (Herbicidal rate of 70% or more and less than 90%) | herbicidal effect on O: lambsquarters [27]: 5 (Herbicidal rate of 90% or more (almost completely withered)) | herbicidal effect rating, N: redroot pigweed [28]: 5 (Herbicidal rate of 90% or more (almost completely withered)) | herbicidal effect rating, G: green foxtail [29]: 0 (Herbicidal rate of 5% or less (almost no effect)) | herbicidal effect rating, H: barnyard grass [30]: 0 (Herbicidal rate of 5% or less (almost no effect))

— US20230085307A1, “PYRIDAZINONE COMPOUND AND HERBICIDE” (NISSAN CHEMICAL CORPORATION, priority 2019, published 2023)
